Data from PubChem BioAssay AID743070 (Broad Institute, 2013).
Activity calls are given as the source filed them. How the calls were made is not given here.

Assay: growth inhibition of wild-type Mtb, BioA inhibitor project, biotin-free medium, plate reader, dry powder (AID 743070)
Settings: M. tuberculosis wild type growth; for IC90: measured here: Mtb growth IC90

Compound	IC50	IC90
O=C(c1ccc2c(c1)OCO2)N1CCN(c2ccccc2)CC1	23.2 µM	> 50 µM
COc1ccc(C(=O)N2CCN(c3ccc(C(C)=O)cc3)CC2)cc1	> 50 µM (inactive)	> 50 µM
CC(=O)c1ccc(N2CCN(C(=O)c3ccc4c(c3)OCCO4)CC2)cc1	> 50 µM (inactive)	> 50 µM
CC(C)(C)c1ccc(C(=O)N2CCN(c3ccc4c(c3)OCO4)CC2)cc1	14.9 µM	> 50 µM
CC(=O)c1ccc(N2CCN(C(=O)c3ccc(C)cc3)CC2)cc1	> 50 µM (inactive)	> 50 µM
O=C(O)CC/C(=C\c1ccccc1[N+](=O)[O-])c1nc2ccccc2s1	50 µM	> 50 µM
O=C(Nc1ccc(Cl)cc1)c1cc2nc(C3CC3)cc(C(F)(F)F)n2n1	50 µM	> 50 µM
O=C(Nc1ccc(F)cc1)N1CCN(c2ccccc2)CC1	14.1 µM	> 50 µM
O=C(Nc1cccnc1)c1cc2nc(-c3cccs3)cc(C(F)(F)F)n2n1	> 50 µM (inactive)	> 50 µM
O=C(Nc1ccc2snnc2c1)N1CCOCC1	> 50 µM (inactive)	> 50 µM
CC(=O)c1ccc(N2CCN(C(=O)c3cccc(Cl)c3)CC2)cc1	7.5 µM	27.5 µM
Cc1ccc(/C=C(\CCC(=O)O)c2nc3ccccc3s2)cc1[N+](=O)[O-]	1.1 µM	2.5 µM
Cc1nc2ccc(NC(=O)N3CCN(c4ccccc4)CC3)cc2s1	2.1 µM	6.8 µM
Cc1cccc(/C=C(\CCC(=O)O)c2nc3ccccc3s2)c1	3.1 µM	11 µM
CCN(CC)c1ccc2cc(C(=O)c3cccs3)c(=O)oc2c1	3.8 µM	20.7 µM
COc1cccc(NC(=O)N2CCN(c3ccccc3)CC2)c1	50 µM	> 50 µM
CC(=O)c1ccc(N2CCN(C(=O)c3ccc4c(c3)OCO4)CC2)cc1	5 µM	26.3 µM
O=C(Nc1ccncc1)c1cc2nc(C3CC3)cc(C(F)F)n2n1	50 µM	> 50 µM
Cc1cc(C)n2nc(C(=O)Nc3cccnc3)nc2n1	> 50 µM (inactive)	> 50 µM
CC(=O)c1ccc(N2CCN(C(=O)c3cccnc3)CC2)cc1	> 50 µM (inactive)	> 50 µM

Compound	IC50	IC90
Cc1ccccc1/C=C(\CCC(=O)O)c1nc2ccccc2s1	8.3 µM	44.1 µM
O=C(Nc1ccc(Cl)c(-c2nc3ccccc3[nH]2)c1)c1cccnc1	7.4 µM	46 µM
CC(=O)c1ccc(N2CCN(C(=O)c3cccc(F)c3)CC2)cc1	> 50 µM (inactive)	> 50 µM
CC(=O)c1ccc(N2CCN(C(=O)c3ccc(Cl)cc3)CC2)cc1	> 50 µM (inactive)	> 50 µM
O=C(Nc1ccccc1)N1CCN(c2ccccc2)CC1	6.9 µM	> 50 µM
CC(=O)c1ccc(N2CCN(C(=O)c3ccc(Br)cc3)CC2)c(F)c1	10.3 µM	> 50 µM
O=C(Nc1ccc2snnc2c1)N1CCCCC1	50 µM	> 50 µM
O=C(Nc1cccnc1)c1cnn2c(C(F)F)cc(C3CC3)nc12	> 50 µM (inactive)	> 50 µM
CCc1ccc(C(=O)N2CCN(Cc3ccc4c(c3)OCO4)CC2)cc1	8.5 µM	> 50 µM
O=C(Nc1ccc2snnc2c1)N1CCN(c2ccccc2)CC1	3.2 µM	17.9 µM
CC(=O)c1ccc(N2CCN(Cc3ccc4c(c3)OCO4)CC2)cc1	31.2 µM	> 50 µM
O=C(O)CC/C(=C\c1ccc([N+](=O)[O-])cc1)c1nc2ccccc2s1	8.9 µM	34.4 µM
CC(=O)c1ccc(N2CCN(C(=O)c3ccccc3)CC2)cc1	> 50 µM (inactive)	> 50 µM
O=C(c1ccc2c(c1)OCO2)N1CCN(c2ccc(Cl)cc2)CC1	11.2 µM	49.2 µM
O=C(c1ccc2c(c1)OCO2)N1CCN(Cc2ccccc2)CC1	> 50 µM (inactive)	> 50 µM
Cc1ccc(/C=C(\CC(=O)O)c2nc3ccccc3s2)cc1[N+](=O)[O-]	6.8 µM	> 50 µM
O=C(c1ccc2c(c1)OCO2)N1CCN(c2ccc(F)cc2)CC1	22 µM	> 50 µM
CCOC(=O)N1CCN(C(=O)Nc2ccc3snnc3c2)CC1	14.6 µM	> 50 µM
O=C(Nc1ccc2[nH]ccc2c1)N1CCN(c2ccccc2)CC1	7 µM	> 50 µM
Cc1ccc(NC(=O)N2CCN(c3ccccc3)CC2)cc1	10.3 µM	> 50 µM

Compound	IC50	IC90
COc1cccc(NC(=O)CCC2CCN(C(=O)c3ccc(C(C)=O)s3)CC2)c1	10.7 µM	> 50 µM
Cc1nc2cc(NC(=O)N3CCN(c4ccccc4)CC3)ccc2o1	50 µM	> 50 µM
COc1ccc(N2CCN(C(=O)c3ccc4c(c3)OCO4)CC2)cc1	9.7 µM	> 50 µM
Cc1cc(C)n2nc(C(=O)Nc3cccnc3)cc2n1	21.8 µM	> 50 µM
COc1ccc(NC(=O)N2CCN(c3ccccc3)CC2)cc1	50 µM	> 50 µM
COc1cc(/C=C/C(=O)Nc2cccnc2)cc(OC)c1OC	13.7 µM	> 50 µM
CC(=O)c1ccc(N2CCN(C(=O)c3ccc(F)cc3)CC2)cc1	50 µM	> 50 µM
O=C(Nc1cccnc1)N1CCN(c2ccccc2)CC1	> 50 µM (inactive)	> 50 µM
O=C(Nc1cccc(F)c1)N1CCN(c2ccccc2)CC1	8.2 µM	> 50 µM
O=C(COc1ccc2ccc(=O)oc2c1)N1CCN(c2ccc(F)cc2)CC1	50 µM	> 50 µM
Cc1ccc(/C=C(\CCC(=O)O)c2nc3ccccc3s2)cc1	2 µM	4.8 µM
CC(=O)c1ccc(N2CCN(C(=O)c3ccc4ncsc4c3)CC2)cc1	22.2 µM	> 50 µM
COc1cccc(C(=O)N2CCN(c3ccc(C(C)=O)cc3)CC2)c1	50 µM	> 50 µM
CCc1ccc(N2CCN(C(=O)c3ccc4c(c3)OCO4)CC2)cc1	9.6 µM	> 50 µM
O=C(Nc1cccnc1)c1cnn2c(C(F)(F)F)cc(-c3ccccc3)nc12	> 50 µM (inactive)	> 50 µM
O=C(Nc1cccc(Cl)c1)N1CCN(c2ccccc2)CC1	5 µM	> 50 µM
COC(=O)c1c(C(=O)OC)c(-c2cccc(F)c2)n2c1CS(=O)C2 (stereo not given)	15.9 µM	> 50 µM
Cc1ccc(/C=C(\CCCC(=O)O)c2nc3ccccc3s2)cc1[N+](=O)[O-]	8.4 µM	> 63.3 µM
Cc1ccc(-c2cc(C(F)(F)F)n3nc(C(=O)Nc4cccnc4)cc3n2)cc1	> 50 µM (inactive)	> 50 µM
COc1ccc(-c2cc(C(F)(F)F)n3nc(C(=O)Nc4cccnc4)cc3n2)cc1	2.7 µM	> 50 µM
